Laboratory results from PMC4821105 (Pharmacognosy Research, 2016).

How the values were obtained:
[1] = target: T1, PTP1B (Homo sapiens, UniProt P18031); experiment: Protein tyrosine phosphatase 1B inhibitory activity; type: biochemical
T1 sequence (P18031 1-435): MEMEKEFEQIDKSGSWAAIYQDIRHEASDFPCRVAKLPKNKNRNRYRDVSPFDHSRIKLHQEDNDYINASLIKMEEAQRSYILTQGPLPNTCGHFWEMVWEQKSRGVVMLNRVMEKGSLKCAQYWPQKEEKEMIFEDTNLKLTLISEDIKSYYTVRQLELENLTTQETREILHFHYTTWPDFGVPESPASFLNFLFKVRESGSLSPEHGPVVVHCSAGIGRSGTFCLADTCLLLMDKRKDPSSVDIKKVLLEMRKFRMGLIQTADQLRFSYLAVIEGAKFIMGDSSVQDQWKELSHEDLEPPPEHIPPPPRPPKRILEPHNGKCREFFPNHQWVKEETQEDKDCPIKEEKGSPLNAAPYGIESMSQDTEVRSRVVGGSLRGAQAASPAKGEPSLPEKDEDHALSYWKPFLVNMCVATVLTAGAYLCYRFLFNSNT

[2] = target: T2, TCPTP (Homo sapiens, UniProt P17706); experiment: T-cell protein tyrosine phosphatase inhibitory activity; type: biochemical
T2 sequence (P17706 1-415): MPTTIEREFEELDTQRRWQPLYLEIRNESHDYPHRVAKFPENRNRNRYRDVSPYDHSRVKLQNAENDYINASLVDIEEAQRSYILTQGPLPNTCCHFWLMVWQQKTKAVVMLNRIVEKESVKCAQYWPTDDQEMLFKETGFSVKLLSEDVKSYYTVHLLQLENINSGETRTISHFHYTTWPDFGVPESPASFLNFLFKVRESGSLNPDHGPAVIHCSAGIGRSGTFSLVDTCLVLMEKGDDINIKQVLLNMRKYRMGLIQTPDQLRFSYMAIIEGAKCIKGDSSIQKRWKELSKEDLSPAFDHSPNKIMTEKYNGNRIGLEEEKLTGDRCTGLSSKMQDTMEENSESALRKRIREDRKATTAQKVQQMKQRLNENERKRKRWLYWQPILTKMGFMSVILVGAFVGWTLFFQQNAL

[3] = target: T1, PTP1B; settings: previous study of 28 medicinal plants; cited from earlier work

IC50 [1] [µM]	inhibition at 10 µg/mL ([1]; read-out: PTP1B inhibited activity (%), 10 μg/mL, mean of triplicate) [%]	IC50 [2] [µM]	PTP1B (IC50, μg/mL) ([1]; pNPP 2 mM, 37°C, 30 min) [µg/mL]	SMILES	PTP1B IC50 (previous screening of Indonesian herbal medicines) [3] [µg/mL]
3.28	98	5.25	–	C=C(C)[C@@H]1CC[C@]2(C(=O)O)CC[C@]3(C)[C@H](CC[C@@H]4[C@@]5(C)CC[C@H](O)C(C)(C)[C@@H]5CC[C@]43C)[C@@H]12 [Compound 1, Betulinic acid]	–
–	–	–	2.05	CCCCCCCCCCCCCCCC(=O)C1=C(O)C(CO)OC1=O (stereo not drawn) [RK-682, reference compound]	2.05
–	–	6.79	–	C[C@H]1[C@H](C)CC[C@]2(C(=O)O)CC[C@]3(C)C(=CC[C@@H]4[C@@]5(C)CC[C@H](O)C(C)(C)[C@@H]5CC[C@]43C)[C@H]12 [Compound 2, ursolic acid]	–
